Experimental data taken from ChEMBL document CHEMBL1132872, “Synthesis of a potent aminocyclitol alpha-mannosidase inhibitor, 1L-(1,2,3,5/4)-5-amino-4-O-methyl-1,2,3,4-cyclopentanetetrol” (Bioorg Med Chem Lett, 2000).
pIC50: −log10 of the molar value.

Columns and labels:
Parameters in all cases: species or system Canavalia ensiformis
[1] = Inhibitory activity against Alpha-mannosidase (Jack bean)
[2] = Inhibitory activity against Alpha-mannosidase (Jack bean); No inhibition
[3] = Compound (at <10 e -3M) was tested for inhibition of Alpha-mannosidase (jack bean); No inhibition

For `N[C@@H]1C[C@H](O)[C@H](O)[C@@H]1O`, the pIC50 [1] was 4.96.
`N[C@H]1[C@@H](O)[C@@H](O)[C@@H](O)[C@@H]1S` gave a pIC50 [1] of 4.44.
Compound `CO[C@@H]1[C@@H](N)[C@@H](O)[C@@H](O)[C@H]1O` has a pIC50 [1] of 6.80.
In the case of `CO[C@@H]1[C@@H](N)[C@@H](OC)[C@@H](O)[C@H]1O`, the IC50 [2] was “Not Active”.
`CCS[C@@H]1[C@@H](N)[C@@H](O)[C@@H](O)[C@H]1O` gave a pIC50 [1] of 5.30.
For `CO[C@H]1[C@@H](N)[C@@H](O)[C@@H](O)[C@H]1O`, the IC50 [3] was “Not Active”.
For `CS[C@@H]1[C@@H](N)[C@@H](O)[C@@H](O)[C@H]1O` [MANNOSTATIN A], the pIC50 [1] was 6.46.
